Calls of active or inactive are those of the source. The rule behind the calls is not given here.
How the values were obtained:
[1] = Toxicity in immunodeficient BALB/c mouse assessed as bone marrow suppression by measuring HGB level at 20 mg/kg, ip for 14 days by whole blood analysis; format: organism-based; settings: in vivo, 336 h, time 14 day
[2] = biological target: T1, Phospholipid hydroperoxide glutathione peroxidase GPX4 (Homo sapiens) (UniProt P36969); assay: Binding affinity to GPX4 in human MDA-MB-231 cells assessed as reduction in thermal stability at 1 uM incubated for 2 hrs by CESTA analysis; format: cell-based
T1 sequence (whole entry): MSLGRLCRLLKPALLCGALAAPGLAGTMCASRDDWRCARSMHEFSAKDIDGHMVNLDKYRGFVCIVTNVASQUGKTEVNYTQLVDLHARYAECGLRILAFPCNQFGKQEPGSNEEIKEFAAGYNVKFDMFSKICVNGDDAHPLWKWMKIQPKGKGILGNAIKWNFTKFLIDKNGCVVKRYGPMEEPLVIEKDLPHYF

MDA-MB-231 [3] = assay: Induction of ferroptosis in siRNA mediated GPX4 knockdown human MDA-MB-231 cells with assessed as change in FTH1 protein expression level at 20 nM incubated for 8 hrs by Western blot analysis; format: functional, cell-based
[4] = biological target: T1, Phospholipid hydroperoxide glutathione peroxidase GPX4 (Homo sapiens); assay: Binding affinity to GPX4 (unknown origin) at Cys66 residue assessed as change in mass of single charged y3+ ion at 100 uM incubated for 1.5 hrs by SDS-PAGE based LC-MS/MS analysis
[5] = MRT(t) in rat at 10 mg/kg, ip and measured upto 24 hrs by LC-MS/MS analysis; format: ADME, organism-based; settings: in vivo
[6] = biological target: T1, Phospholipid hydroperoxide glutathione peroxidase GPX4 (Homo sapiens); assay: Binding affinity to GPX4 (unknown origin) at Cys66 residue assessed as change in mass of single charged y2+ ion at 100 uM incubated for 1.5 hrs by SDS-PAGE based LC-MS/MS analysis
MDA-MB-231 [7] = assay: Induction of ferroptosis in siRNA mediated GPX4 knockdown human MDA-MB-231 cells with assessed as cell viability at 10 nM incubated for 10 hrs by MTT assay; format: functional, cell-based
MDA-MB-231 [8] = assay: Induction of ferroptosis in human MDA-MB-231 cells with assessed as upregulation of GPX4 protein expression level at 5 to 20 nM incubated for <6 hrs by Western blot analysis; format: functional, cell-based; settings: dose 5-20 nM
[9] = Clearance in rat at 10 mg/kg, ip and measured upto 24 hrs by LC-MS/MS analysis; format: ADME, organism-based; settings: in vivo
[10] = Tmax in rat at 10 mg/kg, ip and measured upto 24 hrs by LC-MS/MS analysis; format: ADME, organism-based; settings: in vivo
MDA-MB-231 [11] = assay: Induction of ferroptosis in siRNA mediated GPX4 knockdown human MDA-MB-231 cells with assessed as change in ACSL4 protein expression level at 20 nM incubated for 8 hrs by Western blot analysis; format: functional, cell-based
[12] = biological target: T1, Phospholipid hydroperoxide glutathione peroxidase GPX4 (Homo sapiens); assay: Binding affinity to GPX4 in human MDA-MB-231 cells assessed as decrease in apprent aggregation temperature at 1 uM incubated for 2 hrs by CESTA analysis (Rvb=58.3 +/- 0.7 degreeC); format: cell-based

SMILES	Activity [1]	Activity [2]	Activity (MDA-MB-231 [3])	Activity [4]	MRT last at 24 h [5] [h]	Activity [6]	Activity (MDA-MB-231 [7])	Activity (MDA-MB-231 [8])	CL [9] [mL/min/kg]	Tmax [10] [h]	Activity (MDA-MB-231 [11])	T [12] [°C]
COc1cc(N(C(=O)CBr)c2ccc3c(c2)OCCO3)cc(OC)c1F	Toxic	–	–	–	–	–	–	–	–	–	–	–
COc1cc(N(C(=O)CCl)c2ccc3c(c2)OCCO3)cc(OC)c1F	–	Active	inactive	inactive	1.71	inactive	inactive	Active	13.8	0.85	inactive	51.8

— ChEMBL document CHEMBL5346969 (J Med Chem, 2023)
